From patent US8329705B2, “Substituted triazolo-pyrazine compounds” (ArQule, Inc., priority 2009, dated 2012)

The molecules below were run against T1, FGFR2 (N549H) (Homo sapiens, UniProt P21802, N549H) (assay: FGFR2 kinase activity assay (fluorescent ELISA)). Conditions: 30 μM compound.
T1 construct: purchased Millipore 14-742
Assay type: biochemical
Protocol: A fluorescent ELISA assay was developed to identify and characterize inhibitors of FGFR2 kinase. This heterogeneous assay utilized a biotinylated peptide with a tyrosine motif as a substrate and an anti-phospho-tyrosine antibody to measure phosphorylation of the substrate. The reaction was initiated by adding a test compound, 37 uM Pyk2 substrate (Midwest Biotech, cat. #MBT2383), 12.5 uM ATP (Roche, cat. #11 140 965 001), and 0.5 uM FGFR2 enzyme (Millipore, cat. #14-742) sequentially to a non-binding polypropylene V-well plate. All reagents were in assay buffer consisting of: 50 mM Tris-HCL, 0.02 mg/mL BSA, 10 mM MgCl2, 0.1 mM Na3VO4, 1 mM EGTA, […], 0.01% NP-40, 2 mM DTT, 10% Glycerol. The reaction was incubated for 60 minutes. As the reaction proceeded, FGFR2 phosphorylated tyrosines in the peptide. The reaction mixture was then moved to a blocked streptavidin coated Nunc Maxisorb plate (coated with 100 ng streptavidin from Pierce (cat #15-124) per well) allowing for the capture of the biotinylated peptide. Peptide was captured for 30 minutes at room temperature, the phosphorylation of peptide continues during this phase. The reaction was stopped by washing the Streptavidin plate 6 times with TBST. Phosphorylated peptide was detected by adding anti-phospho tyrosine antibody (purchased from Cell Signaling, cat. #9411, diluted 1:3000), unbound antibody was removed by washing 6 times with TBST. Secondary detection was performed using Alkaline Phosphatase tagged goat anti-mouse antibody (purchased from Pierce, cat. #31320, diluted 1:4000) for one hour. Unbound secondary antibody was removed by washing 6 times with TBST.
The fluorescent readout was initiated by the addition of Promega Attophos substrate (purchased from Promega; Kit catalog number: S1000, dilution=6 mg/10 mL), which when dephosphorylated by Alkaline phosphatase emitted a fluorescent signal of […] when excited by a signal […]. This reading was done on the Perkin Elmer Envision system. […] The signal was directly proportional to the activity of FGFR2 and compound inhibition of FGFR2 was monitored by a decrease in signal.

T1 sequence (P21802 22-821 N549H): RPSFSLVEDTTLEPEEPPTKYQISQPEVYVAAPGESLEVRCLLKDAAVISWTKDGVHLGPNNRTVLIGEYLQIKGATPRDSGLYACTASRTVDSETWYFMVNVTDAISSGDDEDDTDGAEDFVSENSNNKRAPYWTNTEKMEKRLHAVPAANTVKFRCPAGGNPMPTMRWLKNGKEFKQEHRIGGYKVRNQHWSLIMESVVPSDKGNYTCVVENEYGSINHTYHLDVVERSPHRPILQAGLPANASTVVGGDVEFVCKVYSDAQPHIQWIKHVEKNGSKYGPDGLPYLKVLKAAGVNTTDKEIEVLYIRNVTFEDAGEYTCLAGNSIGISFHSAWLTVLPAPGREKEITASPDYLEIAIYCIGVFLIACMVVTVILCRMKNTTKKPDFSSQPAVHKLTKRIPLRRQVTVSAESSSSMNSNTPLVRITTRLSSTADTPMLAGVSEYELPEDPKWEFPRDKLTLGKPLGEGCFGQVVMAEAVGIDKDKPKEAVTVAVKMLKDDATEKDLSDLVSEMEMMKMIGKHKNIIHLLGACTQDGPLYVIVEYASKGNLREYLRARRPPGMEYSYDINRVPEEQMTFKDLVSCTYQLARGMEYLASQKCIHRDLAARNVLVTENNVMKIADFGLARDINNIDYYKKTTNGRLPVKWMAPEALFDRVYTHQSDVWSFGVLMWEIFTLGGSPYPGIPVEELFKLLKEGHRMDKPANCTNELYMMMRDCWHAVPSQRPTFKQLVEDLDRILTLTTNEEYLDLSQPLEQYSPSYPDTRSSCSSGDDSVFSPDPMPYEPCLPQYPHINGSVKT

With `CC(C)OC(=O)Nc1nnc2c(Nc3ccc(C(C)(C)C)cc3)nccn12` [Compound 50, isopropyl {8-[(4-tert-butylphenyl)amino][1,2,4]triazolo[4,3-a]pyrazin-3-yl}carbamate] as the molecule, how does the inhibition at 30 µM read?
Its inhibition at 30 µM is 63.6%.

How did the inhibition at 30 µM turn out when `COc1ccc(Nc2nccn3c(NC(=O)OC(C)C)nnc23)c(OC)c1` [Compound 35, isopropyl {8-[(2,4-dimethoxyphenyl)amino][1,2,4]triazolo[4,3-a]pyrazin-3-yl}carbamate] was run?
Its inhibition at 30 µM is 57%.

Which inhibition at 30 µM does the source give for `COc1ccc(Cl)cc1Nc1nccn2c(NC(=O)OC(C)C)nnc12` [Compound 7, isopropyl {8-[(5-chloro-2-methoxyphenyl)amino][1,2,4]triazolo[4,3-a]pyrazin-3-yl}carbamate] here?
Its inhibition at 30 µM is 55.5%.

For `CC(C)OC(=O)Nc1nnc2c(Nc3nc4ccccc4[nH]3)nccn12` [Compound 56, isopropyl [8-(1H-benzimidazol-2-ylamino)[1,2,4]triazolo[4,3-a]pyrazin-3-yl]carbamate], which inhibition at 30 µM is on record?
Its inhibition at 30 µM is 64.7%.

For `Nc1nnc2c(NCc3ccccc3F)nccn12` [Compound 153, N^8-(2-fluorobenzyl)[1,2,4]triazolo[4,3-a]pyrazine-3,8-diamine], which inhibition at 30 µM is on record?
The inhibition at 30 µM was 72.9%.

For `CC(C)OC(=O)Nc1nnc2c(NCCc3ccc(Oc4ccccc4)cc3)nccn12` [Compound 36, isopropyl (8-{[2-(4-phenoxyphenyl)ethyl]amino}[1,2,4]triazolo[4,3-a]pyrazin-3-yl)carbamate], which inhibition at 30 µM is on record?
Its inhibition at 30 µM is 51.4%.

`Cc1cccc(CCNc2nccn3c(NC(=O)OC(C)C)nnc23)c1` [Compound 42, isopropyl (8-{[2-(3-methylphenyl)ethyl]amino}[1,2,4]triazolo[4,3-a]pyrazin-3-yl)carbamate] was tested. Which inhibition at 30 µM did it give?
The inhibition at 30 µM was 58.7%.

How did the inhibition at 30 µM turn out when `COc1ccc(C)cc1Nc1nccn2c(N)nnc12` [Compound 124, N^8-(2-methoxy-5-methylphenyl)[1,2,4]triazolo[4,3-a]pyrazine-3,8-diamine] was run?
Its inhibition at 30 µM is 73.5%.

With `CC(C)OC(=O)Nc1nnc2c(NCc3ccccc3F)nccn12` [Compound 84, isopropyl {8-[(2-fluorobenzyl)amino][1,2,4]triazolo[4,3-a]pyrazin-3-yl}carbamate] as the molecule, how does the inhibition at 30 µM read?
The inhibition at 30 µM was 84%.

With `Nc1nnc2c(Nc3cccc(Br)c3)nccn12` [Compound 142, N^8-(3-bromophenyl)[1,2,4]triazolo[4,3-a]pyrazine-3,8-diamine] as the molecule, how does the inhibition at 30 µM read?
Its inhibition at 30 µM is 59.9%.

For `Cc1cccc(CNc2nccn3c(N)nnc23)c1C` [Compound 131, N^8-(2,3-dimethylbenzyl)[1,2,4]triazolo[4,3-a]pyrazine-3,8-diamine], which inhibition at 30 µM is on record?
Its inhibition at 30 µM is 65.7%.

Which inhibition at 30 µM does the source give for `Cc1cccc(CNc2nccn3c(NC(=O)OC(C)C)nnc23)c1` [Compound 19, isopropyl {8-[(3-methylbenzyl)amino][1,2,4]triazolo[4,3-a]pyrazin-3-yl}carbamate] here?
The inhibition at 30 µM was 55.2%.

How did the inhibition at 30 µM turn out when `COc1ccc(C)cc1Nc1nccn2c(NC(=O)OC(C)C)nnc12` [Compound 23, isopropyl {8-[(2-methoxy-5-methylphenyl)amino][1,2,4]triazolo[4,3-a]pyrazin-3-yl}carbamate] was run?
Its inhibition at 30 µM is 50.9%.

Which inhibition at 30 µM does the source give for `Nc1nnc2c(NCc3ccc(C(F)(F)F)cc3)nccn12` [Compound 100, N^8-[4-(trifluoromethyl)benzyl][1,2,4]triazolo[4,3-a]pyrazine-3,8-diamine] here?
Its inhibition at 30 µM is 66.5%.

`COc1ccc(N(C)c2nccn3c(N)nnc23)cc1` [Compound 152, N^8-(4-methoxyphenyl)-N^8-methyl[1,2,4]triazolo[4,3-a]pyrazine-3,8-diamine] was tested. Which inhibition at 30 µM did it give?
The inhibition at 30 µM was 109%.

`Nc1nnc2c(NCc3ccc(Br)cc3)nccn12` [Compound 140, N^8-(4-bromobenzyl)[1,2,4]triazolo[4,3-a]pyrazine-3,8-diamine] was tested. Which inhibition at 30 µM did it give?
The inhibition at 30 µM was 52.9%.

Which inhibition at 30 µM does the source give for `CC(C)OC(=O)Nc1nnc2c(Nc3ccc4c(c3)CCC4)nccn12` [Compound 34, isopropyl [8-(2,3-dihydro-1H-inden-5-ylamino)[1,2,4]triazolo[4,3-a]pyrazin-3-yl]carbamate] here?
The inhibition at 30 µM was 68.7%.

For `Cc1cccc2c(CCNc3nccn4c(NC(=O)OC(C)C)nnc34)c[nH]c12` [Compound 85, isopropyl (8-{[2-(7-methyl-1H-indol-3-yl)ethyl]amino}[1,2,4]triazolo[4,3-a]pyrazin-3-yl)carbamate], which inhibition at 30 µM is on record?
Its inhibition at 30 µM is 50.6%.

Which inhibition at 30 µM does the source give for `COc1ccc(Cl)c(Nc2nccn3c(N)nnc23)c1` [Compound 154, N^8-(2-chloro-5-methoxyphenyl)[1,2,4]triazolo[4,3-a]pyrazine-3,8-diamine] here?
The inhibition at 30 µM was 82.8%.

How did the inhibition at 30 µM turn out when `CC(C)OC(=O)Nc1nnc2c(N(C)Cc3ccccc3)nccn12` [Compound 30, isopropyl {8-[benzyl(methyl)amino][1,2,4]triazolo[4,3-a]pyrazin-3-yl}carbamate] was run?
The inhibition at 30 µM was 56.3%.

Which inhibition at 30 µM does the source give for `CC(C)OC(=O)Nc1nnc2c(NCCc3ccc(F)cc3)nccn12` [Compound 28, isopropyl (8-{[2-(4-fluorophenyl)ethyl]amino}[1,2,4]triazolo[4,3-a]pyrazin-3-yl)carbamate] here?
The inhibition at 30 µM was 51.6%.

`Nc1nnc2c(NCc3ccccc3Br)nccn12` [Compound 92, N^8-(2-bromobenzyl)[1,2,4]triazolo[4,3-a]pyrazine-3,8-diamine] was tested. Which inhibition at 30 µM did it give?
The inhibition at 30 µM was 59.2%.

Which inhibition at 30 µM does the source give for `Cc1ccc(N(C)c2nccn3c(N)nnc23)cc1` [Compound 107, N^8-methyl-N^8-(4-methylphenyl)[1,2,4]triazolo[4,3-a]pyrazine-3,8-diamine] here?
Its inhibition at 30 µM is 86.1%.

`CC(C)OC(=O)Nc1nnc2c(NCc3cccc(Cl)c3)nccn12` [Compound 24, isopropyl {8-[(3-chlorobenzyl)amino][1,2,4]triazolo[4,3-a]pyrazin-3-yl}carbamate] was tested. Which inhibition at 30 µM did it give?
Its inhibition at 30 µM is 65.3%.

`COc1cc(CCNc2nccn3c(NC(=O)OC(C)C)nnc23)cc(OC)c1` [Compound 31, isopropyl (8-{[2-(3,5-dimethoxyphenyl)ethyl]amino}[1,2,4]triazolo[4,3-a]pyrazin-3-yl)carbamate] was tested. Which inhibition at 30 µM did it give?
The inhibition at 30 µM was 96.5%.

With `Nc1nnc2c(Nc3cccc(F)c3)nccn12` [Compound 99, N^8-(3-fluorophenyl)[1,2,4]triazolo[4,3-a]pyrazine-3,8-diamine] as the molecule, how does the inhibition at 30 µM read?
The inhibition at 30 µM was 60.7%.

For `COc1ccccc1N(C)c1nccn2c(NC(=O)OC(C)C)nnc12` [Compound 41, isopropyl {8-[(2-methoxyphenyl)(methyl)amino][1,2,4]triazolo[4,3-a]pyrazin-3-yl}carbamate], which inhibition at 30 µM is on record?
Its inhibition at 30 µM is 62.5%.

With `CN(c1cccc(Cl)c1)c1nccn2c(N)nnc12` [Compound 155, N^8-(3-chlorophenyl)-N^8-methyl[1,2,4]triazolo[4,3-a]pyrazine-3,8-diamine] as the molecule, how does the inhibition at 30 µM read?
Its inhibition at 30 µM is 57.4%.

For `CC(C)OC(=O)Nc1nnc2c(Nc3ccccc3Cl)nccn12` [Compound 13, isopropyl {8-[(2-chlorophenyl)amino][1,2,4]triazolo[4,3-a]pyrazin-3-yl}carbamate], which inhibition at 30 µM is on record?
Its inhibition at 30 µM is 50.5%.

`Nc1nnc2c(NCc3ccccc3C(F)(F)F)nccn12` [Compound 143, N^8-[2-(trifluoromethyl)benzyl][1,2,4]triazolo[4,3-a]pyrazine-3,8-diamine] was tested. Which inhibition at 30 µM did it give?
Its inhibition at 30 µM is 73.2%.

`CN(C)c1ccc(Nc2nccn3c(N)nnc23)cc1` [Compound 116, N^8-[4-(dimethylamino)phenyl][1,2,4]triazolo[4,3-a]pyrazine-3,8-diamine] was tested. Which inhibition at 30 µM did it give?
Its inhibition at 30 µM is 50%.

Which inhibition at 30 µM does the source give for `CC(C)OC(=O)Nc1nnc2c(NCc3ccc(-c4ccccc4)cc3)nccn12` [Compound 61, isopropyl {8-[(biphenyl-4-ylmethyl)amino][1,2,4]triazolo[4,3-a]pyrazin-3-yl}carbamate] here?
The inhibition at 30 µM was 100%.

For `COc1ccc(OC)c(Nc2nccn3c(NC(=O)OC(C)C)nnc23)c1` [Compound 46, isopropyl {8-[(2,5-dimethoxyphenyl)amino][1,2,4]triazolo[4,3-a]pyrazin-3-yl}carbamate], which inhibition at 30 µM is on record?
Its inhibition at 30 µM is 84.6%.

With `CC(C)OC(=O)Nc1nnc2c(Nc3cccc(Cl)c3)nccn12` [Compound 67, isopropyl {8-[(3-chlorophenyl)amino][1,2,4]triazolo[4,3-a]pyrazin-3-yl}carbamate] as the molecule, how does the inhibition at 30 µM read?
The inhibition at 30 µM was 119%.

With `CCc1ccc(CNc2nccn3c(N)nnc23)cc1` [Compound 139, N^8-(4-ethylbenzyl)[1,2,4]triazolo[4,3-a]pyrazine-3,8-diamine] as the molecule, how does the inhibition at 30 µM read?
The inhibition at 30 µM was 96.3%.

How did the inhibition at 30 µM turn out when `Cc1ccccc1Nc1nccn2c(NC(=O)OC(C)C)nnc12` [Compound 14, isopropyl {8-[(2-methylphenyl)amino][1,2,4]triazolo[4,3-a]pyrazin-3-yl}carbamate] was run?
The inhibition at 30 µM was 82%.

For `CC(C)OC(=O)Nc1nnc2c(N(C)c3ccc(Cl)cc3)nccn12` [Compound 87, isopropyl {8-[(4-chlorophenyl)(methyl)amino][1,2,4]triazolo[4,3-a]pyrazin-3-yl}carbamate], which inhibition at 30 µM is on record?
Its inhibition at 30 µM is 57.7%.

For `CC(C)OC(=O)Nc1nnc2c(NCc3cc(C(F)(F)F)cc(C(F)(F)F)c3)nccn12` [Compound 66, isopropyl (8-{[3,5-bis(trifluoromethyl)benzyl]amino}[1,2,4]triazolo[4,3-a]pyrazin-3-yl)carbamate], which inhibition at 30 µM is on record?
Its inhibition at 30 µM is 58.4%.
